Measured values: ChEMBL document CHEMBL5696439 (Cancer Res, 2010)
Activity calls are given as the source filed them. The calls are words filed in the database; no cut-off is given here.

Experiments:
[1] = target: RAC-gamma serine/threonine-protein kinase (Homo sapiens) (UniProt Q9Y243); experiment: Inhibition of recombinant human full-length His-tagged AKT3 expressed in insect cells at 2 uM using Ser/Thr 06 as substrate measured after 1 hr by Z'-LYTE assay relative to control; settings: Insect cell
[2] = target: Tyrosine-protein kinase BTK (Homo sapiens) (UniProt Q06187); experiment: Inhibition of recombinant human full-length His-tagged BTK expressed in insect cells at 2 uM using Tyr 01 as substrate measured after 1 hr by Z'-LYTE assay relative to control; settings: Insect cell
[3] = target: Calcium/calmodulin-dependent protein kinase type II subunit delta (Homo sapiens) (UniProt Q13557); experiment: Inhibition of recombinant human full-length His-tagged CAMK2D expressed in insect cells at 2 uM using Ser/Thr 04 as substrate measured after 1 hr by Z'-LYTE assay relative to control; settings: Insect cell
[4] = target: Calcium/calmodulin-dependent protein kinase type IV (Homo sapiens) (UniProt Q16566); experiment: Inhibition of recombinant human full-length GST-tagged CAMK4 expressed in E. coli at 2 uM using Ser/Thr 13 as substrate measured after 1 hr by Z'-LYTE assay relative to control
[5] = target: Casein kinase I isoform gamma-2 (Homo sapiens) (UniProt P78368); experiment: Inhibition of recombinant human full-length His-tagged CSNK1G2 expressed in baculovirus expression system at 2 uM using Ser/Thr 05 as substrate measured after 1 hr by Z'-LYTE assay relative to control
[6] = target: Vascular endothelial growth factor receptor 1 (Homo sapiens) (UniProt P17948); experiment: Inhibition of recombinant human GST-tagged FLT1 (781-1338 residues) expressed in insect cells at 2 uM using Tyr 04 as substrate measured after 1 hr by Z'-LYTE assay relative to control; settings: Insect cell
[7] = target: Tyrosine-protein kinase Lyn (Homo sapiens) (UniProt P07948); experiment: Inhibition of recombinant human full length GST-tagged LYN A expressed in baculovirus expression system at 2 uM using Tyr 02 as substrate measured after 1 hr by Z'-LYTE assay relative to control
[8] = target: Mitogen-activated protein kinase 1 (Homo sapiens) (UniProt P28482); experiment: Inhibition of recombinant human full length GST-tagged MAPK1 expressed in E.coli at 2 uM using Ser/Thr 03 as substrate measured after 1 hr by Z'-LYTE assay relative to control
[9] = target: Mitogen-activated protein kinase 13 (Homo sapiens) (UniProt O15264); experiment: Inhibition of recombinant human full length His-tagged MAPK13 expressed in baculovirus expression system at 2 uM using Ser/Thr 03 as substrate measured after 1 hr by Z'-LYTE assay relative to control
[10] = target: Serine/threonine-protein kinase pim-2 (Homo sapiens) (UniProt Q9P1W9); experiment: Inhibition of recombinant human full length GST-tagged PIM2 expressed in insect cells at 2 uM using Ser/Thr 07 as substrate measured after 1 hr by Z'-LYTE assay relative to control; settings: Insect cell
[11] = target: Serine/threonine-protein kinase PLK1 (Homo sapiens) (UniProt P53350); experiment: Inhibition of recombinant human full length His-tagged PLK1 expressed in insect cells at 2 uM using Ser/Thr 16 as substrate measured after 1 hr by Z'-LYTE assay relative to control; settings: Insect cell
[12] = target: Serine/threonine-protein kinase PLK2 (Homo sapiens) (UniProt Q9NYY3); experiment: Inhibition of recombinant human full length GST-tagged PLK2 expressed in baculovirus expression system at 2 uM using Ser/Thr 16 as substrate measured after 1 hr by Z'-LYTE assay relative to control
[13] = target: Protein kinase C beta type (Homo sapiens) (UniProt P05771); experiment: Inhibition of recombinant human full length GST-tagged PRKCB2 expressed in insect cells at 2 uM using Ser/Thr 07 as substrate measured after 1 hr by Z'-LYTE assay relative to control; settings: Insect cell
[14] = target: Protein kinase C epsilon type (Homo sapiens) (UniProt Q02156); experiment: Inhibition of recombinant human full length GST-tagged PRKCE expressed in insect cells at 2 uM using Ser/Thr 07 as substrate measured after 1 hr by Z'-LYTE assay relative to control; settings: Insect cell
[15] = target: Protein kinase C iota type (Homo sapiens) (UniProt P41743); experiment: Inhibition of recombinant human full length His-tagged PRKCI expressed in baculovirus expression system at 2 uM using Ser/Thr 07 as substrate measured after 1 hr by Z'-LYTE assay relative to control
[16] = target: Proto-oncogene tyrosine-protein kinase receptor Ret (Homo sapiens) (UniProt P07949); experiment: Inhibition of recombinant human GST-tagged RET (658-1114 residues) expressed in insect cells at 2 uM using Tyr 02 as substrate measured after 1 hr by Z'-LYTE assay relative to control; settings: Insect cell
[17] = target: Tyrosine-protein kinase SYK (Homo sapiens) (UniProt P43405); experiment: Inhibition of recombinant human full length GST-tagged SYK expressed in baculovirus expression system at 2 uM using […] as substrate measured after 1 hr by Z'-LYTE assay relative to control
MDA-MB-361 [18] = experiment: Antiproliferative activity against human MDA-MB-361 cells assessed as cell growth inhibition incubated for 24 hrs by MTS assay; type: functional, cell-based; settings: MDA-MB-361, 24 h
PC3MM2 = experiment: Antiproliferative activity against human PC3MM2 cells assessed as cell growth inhibition incubated for 24 hrs by MTS assay; type: functional, cell-based; settings: PC3MM2, 24 h
LNCaP = experiment: Antiproliferative activity against human LNCaP cells assessed as cell growth inhibition at 10 micromol/L incubated for 3 days by MTS assay relative to control; type: functional; settings: 72 h, dose 10 µmol/L, time 3 day
MDA-MB-468 = experiment: Induction of apoptosis in human MDA-MB-468 cells assessed as increase in G1 phase at 1 micromol/L incubated for 24 hrs by FACS analysis; type: functional, cell-based; settings: dose 1.0 µmol/L
MDA-MB-361 [19] = experiment: Induction of apoptosis in human MDA-MB-361 cells assessed as PARP cleavage at 0.05 to 5 micromol/L incubated for 48 hrs by Western blot analysis; type: functional, cell-based; settings: dose 0.05-5 µmol/L
HCT-116 = experiment: Antitumor activity against human HCT-116 cells xenografted in female nude mouse model assessed as suppression in P-S6K at T389 level at 50 mg/kg, iv administered once a week and measured at least 8 hrs by immunoblot analysis; type: functional, organism-based
MDA-MB-361 [20] = experiment: Antitumor activity against human MDA-MB-361 cells xenografted in female nude mouse model assessed as substantial regression in tumor at 50 mg/kg, po qd administered as 5 days on/2 days off regimen for 4 cycles; type: functional, organism-based; settings: time 28.0 day
A549 = experiment: Antitumor activity against human A549 cells xenografted in female nude mouse model assessed as suppression in tumor growth at 10 mg/kg, po qd administered as 5 days on/2 days off regimen for 4 cycles; type: functional, organism-based; settings: time 28.0 day
786-0 = experiment: Antitumor activity against PTEN null-human 786-0 cells xenografted in female nude mouse model assessed as suppression in tumor growth at 25 mg/kg, po qd administered as 5 days on/2 days off regimen for 4 cycles relative to control; type: functional; settings: time 28 day

Serine/threonine-protein kinase pim-2 (Homo sapiens), sequence (Q9P1W9 whole entry, looked up): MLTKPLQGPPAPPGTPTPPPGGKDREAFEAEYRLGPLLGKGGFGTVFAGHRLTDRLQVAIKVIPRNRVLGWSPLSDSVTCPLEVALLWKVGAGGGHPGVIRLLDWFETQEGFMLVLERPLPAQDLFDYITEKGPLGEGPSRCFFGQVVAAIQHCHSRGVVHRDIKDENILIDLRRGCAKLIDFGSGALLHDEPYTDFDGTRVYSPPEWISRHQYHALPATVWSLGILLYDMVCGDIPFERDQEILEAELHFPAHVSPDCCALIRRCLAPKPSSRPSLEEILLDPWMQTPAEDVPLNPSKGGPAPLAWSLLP
Mitogen-activated protein kinase 13 (Homo sapiens), sequence (O15264 whole entry): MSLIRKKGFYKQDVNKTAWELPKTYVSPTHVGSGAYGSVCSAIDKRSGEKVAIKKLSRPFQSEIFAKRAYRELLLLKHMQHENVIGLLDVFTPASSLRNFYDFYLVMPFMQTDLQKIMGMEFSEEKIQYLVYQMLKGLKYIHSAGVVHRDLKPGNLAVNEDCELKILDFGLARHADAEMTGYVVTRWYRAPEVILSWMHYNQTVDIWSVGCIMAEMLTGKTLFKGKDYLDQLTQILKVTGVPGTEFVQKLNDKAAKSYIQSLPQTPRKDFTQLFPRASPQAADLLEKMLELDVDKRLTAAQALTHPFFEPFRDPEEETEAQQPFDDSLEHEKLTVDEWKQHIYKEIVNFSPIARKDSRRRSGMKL
Tyrosine-protein kinase BTK (Homo sapiens), sequence (Q06187 whole entry): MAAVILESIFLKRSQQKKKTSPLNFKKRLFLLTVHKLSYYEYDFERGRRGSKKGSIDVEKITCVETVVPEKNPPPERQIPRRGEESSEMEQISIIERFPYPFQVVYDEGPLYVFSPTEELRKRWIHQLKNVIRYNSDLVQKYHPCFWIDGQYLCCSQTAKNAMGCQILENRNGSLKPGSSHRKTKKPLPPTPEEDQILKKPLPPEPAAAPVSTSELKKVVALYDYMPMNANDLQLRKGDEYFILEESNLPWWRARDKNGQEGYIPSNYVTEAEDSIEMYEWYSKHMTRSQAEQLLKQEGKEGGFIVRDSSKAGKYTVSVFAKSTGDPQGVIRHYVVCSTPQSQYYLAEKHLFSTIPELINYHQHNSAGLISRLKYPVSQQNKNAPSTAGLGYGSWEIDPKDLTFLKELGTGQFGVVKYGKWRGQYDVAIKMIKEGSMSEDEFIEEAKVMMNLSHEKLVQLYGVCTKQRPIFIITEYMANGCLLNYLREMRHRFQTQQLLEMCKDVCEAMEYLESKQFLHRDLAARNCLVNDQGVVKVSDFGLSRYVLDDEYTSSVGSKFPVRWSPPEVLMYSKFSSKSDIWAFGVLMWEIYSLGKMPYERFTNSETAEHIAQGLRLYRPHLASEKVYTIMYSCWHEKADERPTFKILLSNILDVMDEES
Vascular endothelial growth factor receptor 1 (Homo sapiens), sequence (P17948 whole entry, the tested form may be a part): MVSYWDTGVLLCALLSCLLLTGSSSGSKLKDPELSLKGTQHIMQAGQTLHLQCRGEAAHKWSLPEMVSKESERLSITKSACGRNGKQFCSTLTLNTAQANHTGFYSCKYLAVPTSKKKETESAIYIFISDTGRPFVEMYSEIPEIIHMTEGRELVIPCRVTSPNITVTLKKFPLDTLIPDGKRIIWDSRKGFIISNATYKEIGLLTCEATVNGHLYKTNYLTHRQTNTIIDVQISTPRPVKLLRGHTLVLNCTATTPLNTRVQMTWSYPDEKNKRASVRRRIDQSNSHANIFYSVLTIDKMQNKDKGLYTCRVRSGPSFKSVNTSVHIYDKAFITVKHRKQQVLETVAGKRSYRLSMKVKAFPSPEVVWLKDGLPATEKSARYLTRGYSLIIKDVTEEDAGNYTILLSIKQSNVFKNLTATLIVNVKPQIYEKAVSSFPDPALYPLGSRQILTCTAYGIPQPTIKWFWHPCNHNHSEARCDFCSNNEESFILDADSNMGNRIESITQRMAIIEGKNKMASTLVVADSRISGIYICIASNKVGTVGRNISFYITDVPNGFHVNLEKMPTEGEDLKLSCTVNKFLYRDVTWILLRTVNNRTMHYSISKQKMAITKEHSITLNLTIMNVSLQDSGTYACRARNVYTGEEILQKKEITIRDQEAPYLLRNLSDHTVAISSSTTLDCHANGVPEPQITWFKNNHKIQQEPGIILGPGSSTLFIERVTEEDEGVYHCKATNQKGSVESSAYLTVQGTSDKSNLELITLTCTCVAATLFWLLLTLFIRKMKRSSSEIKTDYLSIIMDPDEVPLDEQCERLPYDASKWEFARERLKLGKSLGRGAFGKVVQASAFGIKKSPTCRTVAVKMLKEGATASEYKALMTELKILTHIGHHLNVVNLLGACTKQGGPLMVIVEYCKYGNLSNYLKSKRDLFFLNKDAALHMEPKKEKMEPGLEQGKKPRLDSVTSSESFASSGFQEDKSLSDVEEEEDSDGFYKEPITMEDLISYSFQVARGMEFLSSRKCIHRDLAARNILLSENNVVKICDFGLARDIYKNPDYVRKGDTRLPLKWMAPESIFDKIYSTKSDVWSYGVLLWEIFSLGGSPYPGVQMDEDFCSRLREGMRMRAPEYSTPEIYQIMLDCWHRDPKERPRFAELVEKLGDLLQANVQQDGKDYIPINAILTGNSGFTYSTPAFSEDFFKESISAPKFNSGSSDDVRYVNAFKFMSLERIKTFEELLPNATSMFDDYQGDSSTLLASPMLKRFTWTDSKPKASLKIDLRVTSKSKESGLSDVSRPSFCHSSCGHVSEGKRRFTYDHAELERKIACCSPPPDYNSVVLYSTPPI
Protein kinase C iota type (Homo sapiens), sequence (P41743 whole entry, the tested form may be a part): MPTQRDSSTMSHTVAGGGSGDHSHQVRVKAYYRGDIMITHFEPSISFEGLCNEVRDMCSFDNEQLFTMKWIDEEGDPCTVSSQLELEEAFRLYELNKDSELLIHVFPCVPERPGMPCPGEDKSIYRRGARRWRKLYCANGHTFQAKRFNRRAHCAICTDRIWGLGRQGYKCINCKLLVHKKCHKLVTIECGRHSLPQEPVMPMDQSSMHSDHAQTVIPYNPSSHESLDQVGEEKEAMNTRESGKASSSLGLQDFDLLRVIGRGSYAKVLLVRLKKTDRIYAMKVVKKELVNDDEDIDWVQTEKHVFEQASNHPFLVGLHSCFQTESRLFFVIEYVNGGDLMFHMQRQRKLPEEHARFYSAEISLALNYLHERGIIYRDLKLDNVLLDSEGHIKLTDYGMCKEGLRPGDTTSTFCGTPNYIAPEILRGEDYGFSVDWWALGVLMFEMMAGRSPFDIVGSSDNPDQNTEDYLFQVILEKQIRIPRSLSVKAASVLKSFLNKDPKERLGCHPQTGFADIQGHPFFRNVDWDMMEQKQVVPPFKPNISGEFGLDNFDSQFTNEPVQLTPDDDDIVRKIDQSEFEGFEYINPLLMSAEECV
Calcium/calmodulin-dependent protein kinase type IV (Homo sapiens), sequence (Q16566 whole entry, canonical isoform): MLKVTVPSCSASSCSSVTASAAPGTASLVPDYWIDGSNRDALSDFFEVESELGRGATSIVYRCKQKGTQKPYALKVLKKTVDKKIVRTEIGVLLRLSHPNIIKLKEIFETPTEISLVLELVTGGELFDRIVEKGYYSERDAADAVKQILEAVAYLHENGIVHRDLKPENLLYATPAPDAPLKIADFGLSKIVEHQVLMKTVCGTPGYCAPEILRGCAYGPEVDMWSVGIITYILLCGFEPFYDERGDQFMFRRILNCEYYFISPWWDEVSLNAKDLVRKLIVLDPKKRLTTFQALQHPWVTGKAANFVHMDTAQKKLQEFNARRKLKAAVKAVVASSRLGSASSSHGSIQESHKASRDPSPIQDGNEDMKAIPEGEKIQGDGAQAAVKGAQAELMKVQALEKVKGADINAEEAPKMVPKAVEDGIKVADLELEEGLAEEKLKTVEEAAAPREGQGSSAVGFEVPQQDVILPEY
Proto-oncogene tyrosine-protein kinase receptor Ret (Homo sapiens), sequence (P07949 whole entry, the tested form may be a part): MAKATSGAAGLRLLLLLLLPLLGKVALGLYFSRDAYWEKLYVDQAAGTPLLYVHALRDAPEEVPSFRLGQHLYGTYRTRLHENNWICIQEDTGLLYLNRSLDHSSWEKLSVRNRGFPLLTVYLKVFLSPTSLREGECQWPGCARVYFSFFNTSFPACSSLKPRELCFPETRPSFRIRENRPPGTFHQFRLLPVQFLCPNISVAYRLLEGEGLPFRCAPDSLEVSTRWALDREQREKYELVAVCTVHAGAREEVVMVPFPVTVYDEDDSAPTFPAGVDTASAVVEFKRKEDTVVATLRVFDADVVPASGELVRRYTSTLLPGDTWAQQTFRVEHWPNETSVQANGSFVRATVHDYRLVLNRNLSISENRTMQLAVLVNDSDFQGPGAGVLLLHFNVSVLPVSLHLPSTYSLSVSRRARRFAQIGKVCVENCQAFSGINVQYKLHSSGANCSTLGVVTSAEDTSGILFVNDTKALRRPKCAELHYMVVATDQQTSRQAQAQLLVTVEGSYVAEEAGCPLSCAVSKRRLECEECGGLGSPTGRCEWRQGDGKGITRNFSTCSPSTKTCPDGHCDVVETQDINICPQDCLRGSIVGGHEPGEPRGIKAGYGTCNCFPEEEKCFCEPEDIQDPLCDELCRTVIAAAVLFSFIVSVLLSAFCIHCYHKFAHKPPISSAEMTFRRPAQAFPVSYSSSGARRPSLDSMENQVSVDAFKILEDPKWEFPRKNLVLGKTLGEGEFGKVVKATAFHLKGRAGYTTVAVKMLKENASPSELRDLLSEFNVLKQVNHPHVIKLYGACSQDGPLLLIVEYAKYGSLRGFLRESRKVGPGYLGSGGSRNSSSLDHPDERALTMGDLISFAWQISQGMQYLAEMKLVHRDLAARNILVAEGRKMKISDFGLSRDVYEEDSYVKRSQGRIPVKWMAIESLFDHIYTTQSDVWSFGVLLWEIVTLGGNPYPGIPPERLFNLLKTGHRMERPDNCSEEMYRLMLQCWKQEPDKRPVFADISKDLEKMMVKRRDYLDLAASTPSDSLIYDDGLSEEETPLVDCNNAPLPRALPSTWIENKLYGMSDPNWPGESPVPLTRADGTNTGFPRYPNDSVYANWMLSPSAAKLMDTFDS

Work on `CNC(=O)Nc1ccc(-c2nc(N3CC4CCC(C3)O4)c3cnn(C4CCC5(CC4)OCCO5)c3n2)cc1` yielded an inhibition [1] of 2%, an inhibition [2] of 3% and an inhibition [3] of 11%. For the same compound, the inhibition [4] was -1%, the inhibition [5] was -6% and the inhibition [6] was 8%. For the same compound, the inhibition [7] was 7%, the inhibition [8] was 0% and the inhibition [9] was 4%. For the same compound, the inhibition [10] was 3%, the inhibition [11] was -4% and the inhibition [12] was 1%. For the same compound, the inhibition [13] was 9%, the inhibition [14] was 15% and the inhibition [15] was 6%. For the same compound, the inhibition [16] was 4%, the inhibition [17] was 1% and the IC50 (MDA-MB-361 [18]) was 24 nM. The IC50 (PC3MM2) was 2 nM, the inhibition at 10 µM (LNCaP) was 100% and the Activity (MDA-MB-468) was “Active”. The Activity (MDA-MB-361 [19]) was “Active”, the Activity (HCT-116) was “Active” and the Activity (MDA-MB-361 [20]) was “Active”. For the same compound, the Activity (A549) was “Active” and the Activity (786-0) was 100%.
